Experiments:
Type in all cases: biochemical
[1] = molecular target: T1, bovine trypsin (Bos taurus, UniProt P00760); test: Inactivation rate of bovine trypsin, incubation method; conditions: for kobs /[I] bovine trypsin: 0.13 μM trypsin, 0.25-42 μM inhibitor, 80 mM Hepes pH 7.5, 1 mM CaCl2, 8% DMSO, 25° C., NI = no inhibition; for kobsd /[I] bovine trypsin: Table I, 0.1M Hepes, 0.01M CaCl2 pH 7.5, 25° C., 2% DMSO, substrate Z--Arg--SBzl, NI = no inhibition after 25 min
T1 sequence (P00760 24-246): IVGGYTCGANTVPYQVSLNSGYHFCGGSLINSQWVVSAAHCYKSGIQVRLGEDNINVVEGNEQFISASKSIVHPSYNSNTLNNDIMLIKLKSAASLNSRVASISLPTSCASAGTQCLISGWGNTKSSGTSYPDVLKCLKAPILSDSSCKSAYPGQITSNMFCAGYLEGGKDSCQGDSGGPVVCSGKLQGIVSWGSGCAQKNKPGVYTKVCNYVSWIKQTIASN
Method: (§1) Inactivation rates of serine proteases by aryl diesters of peptidyl derivatives of α-aminoalkylphosphonates were measured by the incubation method. An aliquot of inhibitor (25 or 50 μl) in Me2 SO was added to a buffered enzyme solution (0.01-2.3 μM) to initiate the inactivation. Aliquots (50 μl) were withdrawn at various intervals and the residual enzymatic activity was measured. Me2 SO concentration in the reaction mixture was 8-12% (v/v). A 0.1 M HEPES, 0.01 M CaCl2, pH 7.5 buffer was utilized for trypsin and trypsin-like enzymes. A 0.1 M HEPES, 0.5 M NaCl, pH 7.5, was utilized for the other serine proteases. Peptide thioesters or peptide nitroanilides with the appropriate sequences were used as substrates for various serine proteases. All peptide thioesters hydrolysis rates were measured with the assay mixture containing 4,4'-dithiodipyridine {ε324 =19800 M^-1 cm^-1; Grasetti & Murray, Arch. Biochem. Biophys. 1967, 119, 41-48}. Peptide 4-nitroanilide hydrolysis was measured at 410 nm {ε410 =8800 M^-1 cm^-1; Erlanger et al., Arch. Biochem. Biophys. 1961, 95, 271-278}. First order inactivation rate constants (Kobs) were obtained from plots of In vt /vo vs time, and the correlation coefficients were greater then 0.98.
(§2) ^a Inhibition constants were measured in 0.1M Hepes, 0.01M CaCl2
(§3) pH 7.5 for trypsin, granzymes A, and K, and in 0.1M Hepes, 10% glycerol,
(§4) 10 mM heparin, pH 7.5 for mast cell tryptase, and at 25° C. The
(§5) reaction mixtures contained 2% DMSO for trypsin, 7.6% for granzyme A, and
(§6) 7.1% for granzyme K and tryptase. The substrate was Z--Arg--SBzl for
(§7) granzymes and trypsin, and Z--Arg--SBzl or Z--Lys--SBzl for tryptase in
(§8) the presence of DTNB. The inhibitor # concentration ranged from 0.001 to
(§9) ^b NI, no inhibition after 25 min of incubation with enzyme.
(§10) ^a Enzyme was incubated with the inhibitor in 250 μL of the proper
(§11) buffer at 25° C. Specifically, the inhibition reation mixtures wer
composed of: 0.13 μM trypsin, 0.25-42 μM inhibitor in an 80 mM
(§12) Hepes, pH 7.5 buffer containing 1 mM CaCl2 and 8% DMSO; 0.07 μM
(§13) DMSO. Aliquots of 25 μL were withdrawn at various intervals and the
(§14) residual enzymatic activity was measured as described in experimental
(§15) section. The kobs values were calculated from pseudofirst-order
(§16) ^a Enzyme (0.06-0.5 μM) was incubated with the inhibitor (0.25-42
(§17) μM) in 250 μL of the proper buffer containing 9% DMSO at 25°
(§18) C. The final inhibition reaction mixtures are given in the footnote to
(§19) Table 1. Aliquots of 25 μL were withdrawn at various intervals and the […]

[2] = molecular target: T2, human thrombin (Homo sapiens, UniProt P00734); conditions: Table II; for kobs /[I] human thrombin: 0.07 μM thrombin, 0.25-42 μM inhibitor, 80 mM Hepes pH 7.5, 428 mM NaCl, 8% DMSO, 25° C., NI = no inhibition; for % Inh human thrombin: printed in the kobs/[I] column
T2 construct: bovine trypsin, human thrombin
Method: as §1, with “271-278}.” for “271-278}. First order inactivation rate constants (Kobs) were obtained from plots of In vt /vo vs time, and the correlation coefficients were greater then 0.98.”
as §10, §11, §12
thrombin, 0.25-42 μM inhibitor in an 80 mM Hepes, pH 7.5 buffer
(§20) containing 428 mM NaCl and 8% DMSO; 0.07 μM tryptase, 20-66 μM
as §13, §14, §15, §16, §17, §18, §19

[3] = molecular target: T3, human granzyme A (Homo sapiens, UniProt P12544); test: Inactivation rate of human granzyme A, incubation method; conditions: Table I; 0.1M Hepes, 0.01M CaCl2 pH 7.5, 25° C., 7.6% DMSO, substrate Z--Arg--SBzl
T3 sequence (P12544 29-262): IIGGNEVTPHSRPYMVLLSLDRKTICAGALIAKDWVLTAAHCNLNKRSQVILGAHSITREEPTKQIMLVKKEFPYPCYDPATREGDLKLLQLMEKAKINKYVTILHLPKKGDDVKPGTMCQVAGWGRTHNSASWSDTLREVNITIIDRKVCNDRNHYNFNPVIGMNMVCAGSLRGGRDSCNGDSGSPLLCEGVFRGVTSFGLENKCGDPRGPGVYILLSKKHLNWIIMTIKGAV
Method: as §1, §2, §3, §4, §5, §6, §7, §8, §9

[4] = molecular target: mast cell tryptase (Homo sapiens, UniProt Q15661); test: Inactivation rate of mast cell tryptase, incubation method; conditions: for kobsd /[I] mast cell tryptase: Table I, 0.1M Hepes, 10% glycerol, 10 mM heparin, pH 7.5, 25° C., 7.1% DMSO, NI = no inhibition after 25 min of incubation; for kobs /[I] mast cell tryptase: Table II, 0.07 μM tryptase, 20-66 μM inhibitor, Hepes pH 7.5, heparin, 9% glycerol, 8% DMSO, 25° C., NI = no inhibition
Chain of mast cell tryptase (Q15661 31-275): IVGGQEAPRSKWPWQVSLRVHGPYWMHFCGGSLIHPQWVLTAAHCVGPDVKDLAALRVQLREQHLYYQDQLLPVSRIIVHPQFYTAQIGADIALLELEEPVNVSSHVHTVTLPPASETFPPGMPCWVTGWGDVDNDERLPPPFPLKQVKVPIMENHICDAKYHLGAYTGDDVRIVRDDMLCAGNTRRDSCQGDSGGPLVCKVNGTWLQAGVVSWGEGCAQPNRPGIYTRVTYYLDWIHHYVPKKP
Method: as §1, §2, §3, §4, §5, §6, §7, §8, §9, §10, §20
inhibitor # in an mM Hepes, pH 7.5 buffer containing 8 mM heparin, 166 m
NaCl, 0.8 mM Mes, 9% glycerol and 8% DMSO; 0.42 μM factor Xa, 66 μM
as §13, §14, §15, §16, §17, §18, §19

Q: Which results are given for CC(C)CC(NC(=O)C(CC(N)=O)NC(=O)OC(C)(C)C)C(=O)NC(C(=O)NC(c1ccc(C(=N)N)cc1)P(=O)(Oc1ccccc1)Oc1ccccc1)C(C)O (mixture of isomers) [Boc--Asn--Leu--Thr-(4-AmPhGly)^P (OPh)2]?
A: kobs /[I] bovine trypsin ([1]; Table II): 18 ± 2 M⁻¹ s⁻¹; kobs /[I] human thrombin [2]: 46 ± 6 M⁻¹ s⁻¹

Q: How did the “kobs /[I] bovine trypsin” value ([1]; Table II) turn out when CC(C)C(NC(=O)C(Cc1ccccc1)NC(=O)OC(C)(C)C)C(=O)NC(c1ccc(C(=N)N)cc1)P(=O)(Oc1ccccc1)Oc1ccccc1 (mixture of isomers) [Boc--D--Phe--Val-(4-AmPhGly)^P (OPh)2] was run?
A: 30 ± 2 M⁻¹ s⁻¹

Q: What about the “kobs /[I] human thrombin” value [2] of the same compound?
A: 63 ± 4 M⁻¹ s⁻¹

Q: Which “kobs /[I] bovine trypsin” value ([1]; Table II) does the source give for CC(C)CC(NC(=O)OC(C)(C)C)C(=O)NC(CO)C(=O)NC(c1ccc(C(=N)N)cc1)P(=O)(Oc1ccccc1)Oc1ccccc1 (mixture of isomers) [Boc--Leu--Ser-(4-AmPhGly)^P (OPh)2] here?
A: 177 ± 2 M⁻¹ s⁻¹

Q: What about the “kobs /[I] human thrombin” value [2] of the same compound?
A: 97 ± 2 M⁻¹ s⁻¹

Q: For CC(C)CC(NC(=O)OC(C)(C)C)C(=O)NC(C(=O)NC(c1ccc(C(=N)N)cc1)P(=O)(Oc1ccccc1)Oc1ccccc1)C(C)O (mixture of isomers) [Boc--Leu--Thr-(4-AmPhGly)^P (OPh)2], which “kobs /[I] bovine trypsin” value ([1]; Table II) is on record?
A: 35 ± 6 M⁻¹ s⁻¹

Q: And the “kobs /[I] human thrombin” value [2]?
A: 75 ± 1 M⁻¹ s⁻¹

Q: With CC(C)C(NC(=O)OC(C)(C)C)C(=O)NC(C(=O)NC(c1ccc(C(=N)N)cc1)P(=O)(Oc1ccccc1)Oc1ccccc1)C(C)C (mixture of isomers) [Boc--Val--Val-(4-AmPhGly)^P (OPh)2] as the compound, how does the “kobs /[I] bovine trypsin” value ([1]; Table II) read?
A: 61 ± 5 M⁻¹ s⁻¹

Q: What about the “kobs /[I] human thrombin” value [2] of the same compound?
A: 85 ± 5 M⁻¹ s⁻¹

Q: For CC(C)CC(NC(=O)OCc1ccccc1)C(=O)NC(c1ccc(C(=N)N)cc1)P(=O)(Oc1ccccc1)Oc1ccccc1 (mixture of isomers) [Cbz--Leu-(4-AmPhGly)^P (OPh)2], which “kobsd /[I] human granzyme A” value [3] is on record?
A: 6.3 ± 0.7 M⁻¹ s⁻¹

Q: And the “kobsd /[I] mast cell tryptase” value [4]?
A: 0.3 M⁻¹ s⁻¹

Q: And the “kobs /[I] mast cell tryptase” value [4]?
A: 0.3 M⁻¹ s⁻¹

Q: What about the “kobsd /[I] bovine trypsin” value [1] of the same compound?
A: 50 ± 1 M⁻¹ s⁻¹

Q: And the “kobs /[I] bovine trypsin” value ([1]; Table II)?
A: 1.3 ± 0.1 M⁻¹ s⁻¹

Q: What about the “% Inh human thrombin” value [2] of the same compound?
A: 19%

Q: Which results are given for CC(NC(=O)C(CCCCN)NC(=O)OCc1ccccc1)C(=O)NC(c1ccc(C(=N)N)cc1)P(=O)(Oc1ccccc1)Oc1ccccc1 (mixture of isomers) [Cbz--Lys--Ala-(4-AmPhGly)^P (OPh)2]?
A: kobsd /[I] human granzyme A [3]: 90 ± 9 M⁻¹ s⁻¹; kobsd /[I] mast cell tryptase [4]: 2 M⁻¹ s⁻¹; kobs /[I] mast cell tryptase [4]: 2.0 ± 0.0 M⁻¹ s⁻¹; kobsd /[I] bovine trypsin [1]: 3140 ± 262 M⁻¹ s⁻¹; kobs /[I] bovine trypsin ([1]; Table II): 3,140 ± 262 M^-1 s^-1; kobs /[I] human thrombin [2]: 180 ± 7 M⁻¹ s⁻¹

Q: How did the “kobs /[I] bovine trypsin” value ([1]; Table II) turn out when N=C(N)c1ccc(C(NC(=O)C(Cc2c[nH]c3ccccc23)NC(=O)OCc2ccccc2)P(=O)(Oc2ccccc2)Oc2ccccc2)cc1 (mixture of isomers) [Cbz--Trp-(4-AmPhGly)^P (OPh)2] was run?
A: 0.6 M⁻¹ s⁻¹

Q: And the “kobs /[I] human thrombin” value [2]?
A: 1.2 ± 0.0 M⁻¹ s⁻¹

Q: How did the “kobs /[I] bovine trypsin” value ([1]; Table II) turn out when CC(C)CC(N)C(=O)NC(C(=O)NC(c1ccc(C(=N)N)cc1)P(=O)(Oc1ccccc1)Oc1ccccc1)C(C)O (mixture of isomers) [Leu--Thr-(4-AmPhGly)^P (OPh)2] was run?
A: 24.5 ± 0.0 M⁻¹ s⁻¹

Q: And the “kobs /[I] human thrombin” value [2]?
A: 58 ± 3 M⁻¹ s⁻¹

Q: How did the “kobs /[I] bovine trypsin” value ([1]; Table II) turn out when Cc1ccc(S(=O)(=O)NC(c2ccc(C(=N)N)cc2)P(=O)(Oc2ccccc2)Oc2ccccc2)cc1 (racemic) [Tolyl-SO2-(4-AmPhGly)^P (OPh)2] was run?
A: 35 ± 6 M⁻¹ s⁻¹

Q: What about the “kobs /[I] human thrombin” value [2] of the same compound?
A: 94 ± 26 M⁻¹ s⁻¹

Q: What does the source list for N=C(N)c1ccc(C(NC(=O)CCCc2ccccc2)P(=O)(Oc2ccccc2)Oc2ccccc2)cc1 (stereo not drawn) [4-Phenylbutanoyl-(4-AmPhGly)^P (OPh)2]?
A: % Inh bovine trypsin ([1]; Table II, printed in the kobs/[I] column): 15%; kobs /[I] human thrombin [2]: 17 ± 1 M⁻¹ s⁻¹

Q: For Cl.N=C(N)c1cccc(C(NC(=O)OCc2ccccc2)P(=O)(Oc2ccccc2)Oc2ccccc2)c1 (stereo not drawn) [Cbz-(3-AmPhGly)^P (OPh)2, Diphenyl N-Benzyloxycarbonylamino-(3-amidinophenyl)methanephosphonate Hydrochloride], which “% Inh human thrombin” value [2] is on record?
A: 50%

Q: Which results are given for Cl.N=C(N)c1ccc(C(NC(=O)OCc2ccccc2)P(=O)(Oc2ccccc2)Oc2ccccc2)cc1 (stereo not drawn) [Cbz-(4-AmPhGly)^P (OPh)2, Diphenyl N-benzyloxycarbonylamino(4-amidinophenyl)methanephosphonate hydrochloride]?
A: kobsd /[I] bovine trypsin [1]: 2000 M⁻¹ s⁻¹; kobs /[I] bovine trypsin ([1]; Table II): 170 M⁻¹ s⁻¹; kobs /[I] human thrombin [2]: 80 M⁻¹ s⁻¹

Q: How did the “kobs /[I] bovine trypsin” value ([1]; Table II) turn out when Cl.N=C(N)c1ccc(C(NC(=O)OCc2ccccc2)P(=O)(O)Oc2ccccc2)cc1 (stereo not drawn) [Cbz-(4-AmPhGly)^P (OPh)(OH), Phenyl Hydrogen N-Benzyloxycarbonylamino-(4-amidinophenyl)methanephosphonate Hydrochloride] was run?
A: 0.3 M⁻¹ s⁻¹

Q: How did the “kobs /[I] bovine trypsin” value ([1]; Table II) turn out when COP(=O)(Oc1ccccc1)C(NC(=O)OCc1ccccc1)c1ccc(C(=N)N)cc1.Cl (stereo not drawn) [Cbz-(4-AmPhGly)^P (OPh)(OMe), Methyl Phenyl N-Benzyloxycarbonylamino-(4-amidinophenyl)methanephosphonate Hydrochloride] was run?
A: 83 M⁻¹ s⁻¹

Q: And the “kobs /[I] human thrombin” value [2]?
A: 41 M⁻¹ s⁻¹

Q: Which results are given for Cl.N=C(N)c1ccc(C(NC(=O)OCc2ccccc2)P(=O)(Oc2ccc(Cl)cc2)Oc2ccc(Cl)cc2)cc1 (stereo not drawn) [Cbz-(4-AmPhGly)^P (OPh-p-Cl)2, Di-p-chlorophenyl N-Benzyloxycarbonylamino-(4-amidinophenyl)methanephosphonate Hydrochloride]?
A: kobs /[I] mast cell tryptase [4]: 3 ± 0 M⁻¹ s⁻¹; kobs /[I] bovine trypsin ([1]; Table II): 41,100 ± 5400 M^-1 s^-1; kobs /[I] human thrombin [2]: 9,300 ± 210 M^-1 s^-1

Q: For N=C(N)c1ccc(C(NC(=O)CNC(=O)OCc2ccccc2)P(=O)(Oc2ccccc2)Oc2ccccc2)cc1 (stereo not drawn) [Cbz--Gly-(4-AmPhGly)^P (OPh)2], which “kobs /[I] bovine trypsin” value ([1]; Table II) is on record?
A: 195 ± 9 M⁻¹ s⁻¹

Q: What about the “kobs /[I] human thrombin” value [2] of the same compound?
A: 24 ± 3 M⁻¹ s⁻¹
